Measurements taken from US8815853B2, “Pyrimidinone derivatives, preparation thereof and pharmaceutical use thereof” (Sanofi, priority 2010, dated 2014).

Assays:
[1] = biological target: T1, Vps34 (Homo sapiens, UniProt Q8NEB9); experiment: Phosphorylation of phosphatidylinositol (PI) with Vps34 in vitro, ADP detected by TR-FRET (HTRF Transcreener ADP kit); format: biochemical; settings: 10 μM ATP, 55 μg/mL PI, about 3 nM of Vps34, 1 hour at room temperature; absolute CI50, average of 2 independent experiments; read-out: VPS34 CI 50
T1 construct: purchased Invitrogen PV5126
Method: Study of the Phosphorylation of Phosphatidylinositol (PI) with Vps34 In Vitro
This test is based on the detection of the ADP produced during phosphorylation of PI with Bps34 in the presence of ATP. ADP is detected by TR-FRET (Time resolved—Fluorescence Resonance Energy transfer) by using the Transcreener kit marketed by Cisbio (HTRF® Transcreener® ADP, reference 62ADPPEB).
The reaction is started with 10 μL of an ATP solution (Sigma A7699) in a buffer A and lasts for 1 hour at room temperature. […] The enzyme amount is adapted to each batch so as to form about 2 μM of ADP during the reaction. In parallel, an ADP and ATP range giving the possibility of calibration results is prepared according to the indications of the kit. Controls not containing any enzyme (negative control) or not containing any molecules (positive control) are also prepared in parallel. […] Fluorescence emission is detected on a Rubystar apparatus at 620 and 665 nm. The signal ratio is calculated by dividing the 665 nm signal by the 620 nm signal and then by multiplying by 10,000. The signal ratios are converted into an ADP concentration by using the calibration range and according to the instructions of the kit. The percentages of inhibition of the molecules are calculated relatively to the positive controls according to the formula (1−signal ratio of the molecule/signal ratio of the positive control)×100. […] With 2 independent experiments it is possible to calculate the average of the CI50s.

T1 sequence (Q8NEB9 whole entry): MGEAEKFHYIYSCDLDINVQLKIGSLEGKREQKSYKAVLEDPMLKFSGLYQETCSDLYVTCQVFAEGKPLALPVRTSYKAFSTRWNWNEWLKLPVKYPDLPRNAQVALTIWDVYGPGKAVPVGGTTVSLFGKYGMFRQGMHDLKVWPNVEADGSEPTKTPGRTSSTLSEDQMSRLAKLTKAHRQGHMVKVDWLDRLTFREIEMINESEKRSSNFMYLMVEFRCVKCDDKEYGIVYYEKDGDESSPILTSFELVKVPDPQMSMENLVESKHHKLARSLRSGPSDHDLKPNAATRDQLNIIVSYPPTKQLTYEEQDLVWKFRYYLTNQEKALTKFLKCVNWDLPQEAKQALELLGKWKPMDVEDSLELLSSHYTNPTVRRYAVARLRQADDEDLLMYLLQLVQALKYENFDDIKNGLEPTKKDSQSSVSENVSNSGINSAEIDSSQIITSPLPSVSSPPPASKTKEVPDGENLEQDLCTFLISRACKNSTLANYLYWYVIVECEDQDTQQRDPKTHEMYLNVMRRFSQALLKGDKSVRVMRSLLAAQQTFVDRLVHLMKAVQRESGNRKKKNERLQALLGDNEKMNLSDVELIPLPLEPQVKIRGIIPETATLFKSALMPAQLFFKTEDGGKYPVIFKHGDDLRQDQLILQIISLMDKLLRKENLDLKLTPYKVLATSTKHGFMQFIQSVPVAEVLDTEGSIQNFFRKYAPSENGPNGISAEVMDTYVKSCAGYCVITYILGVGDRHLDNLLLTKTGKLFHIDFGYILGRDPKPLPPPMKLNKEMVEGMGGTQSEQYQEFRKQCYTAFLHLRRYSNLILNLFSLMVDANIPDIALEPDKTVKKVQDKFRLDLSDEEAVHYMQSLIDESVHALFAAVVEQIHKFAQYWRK

SMILES	IC50 [1] [nM]	melting point [°C]
O=c1cc(N2CCOCC2)nc2n1CC[C@@H](C(F)(F)F)N2CCOCC(F)(F)F [Example 6b, (S)-2-(Morpholin-4-yl)-9-[2-(2,2,2-trifluoro-ethoxy)-ethyl]-8-(trifluoromethyl)-6,7,8,9-tetrahydro-4H-pyrimido[1,2-a]pyrimidin-4-one]	10 to 100	107.8
CS(=O)(=O)CCN1c2nc(N3CCOCC3)cc(=O)n2CC[C@H]1C(F)(F)F [Example 17b, (8S)-9-(2-Methanesulfonyl-ethyl)-2-morpholin-4-yl-8-trifluoromethyl-6,7,8,9-tetrahydro-pyrimido[1,2-a]pyrimidin-4-one]	< 10	96
CC(C)OCCN1CC2(CC2)Cn2c1nc(N1CCOCC1)cc2=O [Example 16b, 1-(2-Isopropoxyethyl)-8′-(morpholin-4-yl)-1′,2′-dihydro-spiro[cyclopropane-1,3′-pyrimido[1,2-a]pyrimidin]-6′-one]	10 to 100	–
CC(C)(O)CN1c2nc(N3CCOCC3)cc(=O)n2CC[C@H]1C(F)(F)F [Example 8b, (8S)-9-(2-Hydroxy-2-methylpropyl)-2-(morpholin-4-yl)-8-(trifluoromethyl)-6,7,8,9-tetrahydro-4H-pyrimido[1,2-a]pyrimidin-4-one]	< 10	–
O=c1cc(N2CCOCC2)nc2n1CC[C@@H](C(F)(F)F)N2CCO [Example 4b, (8S)-9-(2-Hydroxyethyl)-2-(morpholin-4-yl)-8-(trifluoromethyl)-6,7,8,9-tetrahydro-4H-pyrimido[1,2-a]pyrimidin-4-one]	10 to 100	117
COCCN1c2nc(N3CCOCC3)cc(=O)n2CCC1(C)C [Example 12b, 9-(2-Methoxyethyl)-8,8-dimethyl-2-(morpholin-4-yl)-6,7,8,9-tetrahydro-4H-pyrimido[1,2-a]pyrimidin-4-one]	10 to 100	–
CCC(CC)CN1c2nc(N3CCOCC3)cc(=O)n2C[C@@]1(C)C(F)(F)F [Example 1a, (2S)-1-(2-Ethylbutyl)-2-methyl-7-(morpholin-4-yl)-2-(trifluoromethyl)-2,3-dihydroimidazo[1,2-a]pyrimidin-5(1H)-one]	< 10	–
CC(C)OCCN1CC(C)(C)Cn2c1nc(N1CCOCC1)cc2=O [Example 15b, 9-(2-Isopropoxyethyl)-7,7-dimethyl-2-(morpholin-4-yl)-6,7,8,9-tetrahydro-4H-pyrimido[1,2-a]pyrimidin-4-one]	> 100	–
CCC(CC)CN1c2nc(N3CCOCC3)cc(=O)n2CC[C@H]1C(F)(F)F [Example 1b, (8S)-9-(2-Ethylbutyl)-2-(morpholin-4-yl)-8-(trifluoromethyl)-6,7,8,9-tetrahydro-4H-pyrimido[1,2-a]pyrimidin-4-one]	< 10	–
O=c1cc(N2CCOCC2)nc2n1CC[C@@H](C(F)(F)F)N2CC1CC1 [Example 2b, (8S)-9-(Cyclopropylmethyl)-2-(morpholin-4-yl)-8-(trifluoromethyl)-6,7,8,9-tetrahydro-4H-pyrimido[1,2-a]pyrimidin-4-one]	< 10	–
CC(C)OCCN1c2nc(N3CCOCC3)cc(=O)n2C[C@@]1(C)C(F)(F)F [Example 4a, (S)-1-(2-Isopropoxy-ethyl)-2-methyl-7-(morpholin-4-yl)-2-(trifluoromethyl)-2,3-dihydroimidazo[1,2-a]pyrimidin-5(1H)-one]	10 to 100	88
O=c1cc(N2CCOCC2)nc2n1CC[C@@H](C(F)(F)F)N2C1CCCC1 [Example 3b, (8S)-9-Cyclopentyl-2-(morpholin-4-yl)-8-(trifluoromethyl)-6,7,8,9-tetrahydro-4H-pyrimido[1,2-a]pyrimidin-4-one]	< 10	–

More lines, now with the values ahead:

IC50 [1] [nM]	melting point [°C]	SMILES
> 100	170	Cc1c(N2CCOCC2)nc2n(c1=O)CC[C@@H](C(F)(F)F)N2CC(C)(C)O [Example 9b, (S)-9-(2-Hydroxy-2-methyl-propyl)-3-methyl-2-(morpholin-4-yl)-8-trifluoromethyl-6,7,8,9-tetrahydro-4H-pyrimido[1,2-a]pyrimidin-4-one]
< 10	117	CC(C)OCCN1c2nc(N3CCOCC3)c(F)c(=O)n2CC[C@H]1C(F)(F)F [Example 7b, (8S)-3-Fluoro-9-(2-isopropoxy-ethyl)-2-(morpholin-4-yl)-8-(trifluoromethyl)-6,7,8,9-tetrahydro-4H-pyrimido[1,2-a]pyrimidin-4-one]
< 10	–	C[C@@]1(C(F)(F)F)Cn2c(nc(N3CCOCC3)cc2=O)N1C1CC1 [Example 2a, (2S)-1-Cyclopropyl-2-methyl-7-(morpholin-4-yl)-2-(trifluoromethyl)-2,3-dihydroimidazo[1,2-a]pyrimidin-5(1H)-one]
10 to 100	–	CC(C)OCCN1c2nc(N3CCOCC3)cc(=O)n2CC12CCCC2 [Example 9a, 1′-(2-isopropoxyethyl)-7′-morpholin-4-ylspiro[cyclopentane-1,2′-imidazo[1,2-a]pyrimidin]-5′-one]
> 100	–	COCCN1CC(C)(C)Cn2c1nc(N1CCOCC1)cc2=O [Example 14b, 9-(2-Methoxyethyl)-7,7-dimethyl-2-(morpholin-4-yl)-6,7,8,9-tetrahydro-4H-pyrimido[1,2-a]pyrimidin-4-one]
> 100	–	CC(C)OCCN1c2nc(N3CCOCC3)cc(=O)n2CC[C@]1(C)C(F)(F)F [Example 11Bb, (8R)-8-Methyl-2-(morpholin-4-yl)-9-(2-(propan-2-yloxy)ethyl)-8-(trifluoromethyl)-6,7,8,9-tetrahydro-4H-pyrimido[1,2-a]pyrimidin-4-one]
> 100	–	COCCN1c2nc(N3CCOCC3)cc(=O)n2CC12CCCC2 [Example 8a, 1′-(2-Methoxyethyl)-7′-morpholin-4-ylspiro[cyclopentane-1,2′-imidazo[1,2-a]pyrimidin]-5′-one]
> 100	–	CC(C)OCCN1c2nc(N3CCOCC3)cc(=O)n2CC1(C)C [Example 7a, 1-(2-Isopropoxyethyl)-2,2-dimethyl-7-(morpholin-4-yl)-2,3-dihydroimidazo[1,2-a]pyrimidin-5(1H)-one]
10 to 100	172	COC(C)(C)CN1c2nc(N3CCOCC3)cc(=O)n2CC[C@H]1C(F)(F)F [Example 10b, (S)-9-(2-Methoxy-2-methyl-propyl)-2-(morpholin-4-yl)-8-trifluoromethyl-6,7,8,9-tetrahydro-4H-pyrimido[1,2-a]pyrimidin-4-one]
10 to 100	–	CC(C)OCCN1c2nc(N3CCOCC3)cc(=O)n2CCC1(C)C [Example 13b, 9-(2-Isopropoxyethyl)-8,8-dimethyl-2-(morpholin-4-yl)-6,7,8,9-tetrahydro-4H-pyrimido[1,2-a]pyrimidin-4-one]
< 10	–	C[C@@]1(C(F)(F)F)Cn2c(nc(N3CCOCC3)cc2=O)N1C1CCCC1 [Example 3a, (2S)-1-Cyclopentyl-2-methyl-7-(morpholin-4-yl)-2-(trifluoromethyl)-2,3-dihydroimidazo[1,2-a]pyrimidin-5(1H)-one]
< 10	–	CC(C)OCCN1c2nc(N3CCOCC3)cc(=O)n2CC[C@@]1(C)C(F)(F)F [Example 11Ab, (8S)-8-Methyl-2-(morpholin-4-yl)-9-(2-(propan-2-yloxy)ethyl)-8-(trifluoromethyl)-6,7,8,9-tetrahydro-4H-pyrimido[1,2-a]pyrimidin-4-one]
< 10	–	COC(C)(C)CN1c2nc(N3CCOCC3)cc(=O)n2C[C@@]1(C)C(F)(F)F [Example 6a, (S)-1-(2-Methoxy-2-methyl-propyl)-2-methyl-7-(morpholin-4-yl)-2-(trifluoromethyl)-2,3-dihydroimidazo[1,2-a]pyrimidin-5(1H)-one]
10 to 100	72	CC(C)(O)CN1c2nc(N3CCOCC3)cc(=O)n2C[C@@]1(C)C(F)(F)F [Example 5a, (S)-1-(2-Hydroxy-2-methyl-propyl)-2-methyl-7-(morpholin-4-yl)-2-(trifluoromethyl)-2,3-dihydroimidazo[1,2-a]pyrimidin-5(1H)-one]
